Key:
PG0352 [1] = target: T1, PG0352 (Porphyromonas gingivalis, UniProt Q7MX62); test: X-ray crystal structure, […] Å (soaked); type: binding; details: 10 mM soak, 20 min; sialidase active site; sialidase inhibitor
T1 construct: gene PG_0352; N-terminal His6, residues 31-526 (CBM 31-176 plus sialidase domain 177-523), signal peptide removed, codon-optimized, pQE80L, E. coli BL21-Star (DE3); monomer, ~52 kDa by SEC

PG0352 [2] = target: T1, PG0352; test: X-ray crystal structure, […] Å (soaked); type: binding; details: 27 mM soak, 60 min; sialidase active site; alpha anomer
PG0352 [3] = target: T1, PG0352; test: X-ray crystal structure, […] Å (co-crystallized); type: binding; details: 5 mM ligand; bound in CBM cleft, not the active site
[4] = system: CC(=O)N[C@H]1[C@H]([C@H](O)[C@H](O)CO)O[C@@](Oc2ccc3c(C)cc(=O)oc3c2)(C(=O)O)C[C@@H]1O; test: purified protein; details: 10 mM sodium citrate, pH 5.0, 37 °C, 1 min, 5 nM enzyme
[5] = system: Cc1cc(=O)oc2cc(O[C@@]3(C(=O)O)C[C@H](O)[C@@H](NC(=O)CO)[C@H]([C@H](O)[C@H](O)CO)O3)ccc12; test: purified protein; details: 10 mM sodium citrate, pH 5.0, 37 °C, 1 min, 5 nM enzyme

T1 sequence (Q7MX62 entry or part of it): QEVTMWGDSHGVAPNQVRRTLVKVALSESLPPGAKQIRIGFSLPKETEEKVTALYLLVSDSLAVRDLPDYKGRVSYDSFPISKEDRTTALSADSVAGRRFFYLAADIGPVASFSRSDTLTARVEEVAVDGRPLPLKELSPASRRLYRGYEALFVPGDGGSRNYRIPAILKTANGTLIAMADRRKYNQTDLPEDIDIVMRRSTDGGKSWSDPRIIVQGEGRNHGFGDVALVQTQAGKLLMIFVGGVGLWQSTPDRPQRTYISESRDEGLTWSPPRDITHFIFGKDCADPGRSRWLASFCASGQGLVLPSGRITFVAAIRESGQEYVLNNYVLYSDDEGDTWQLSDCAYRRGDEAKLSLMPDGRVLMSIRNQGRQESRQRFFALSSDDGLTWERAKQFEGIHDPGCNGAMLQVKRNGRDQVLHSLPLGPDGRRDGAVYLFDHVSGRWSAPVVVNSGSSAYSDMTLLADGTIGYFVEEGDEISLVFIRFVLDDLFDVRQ

## CC(=O)N[C@H]1[C@H]([C@H](O)[C@H](O)CO)OC(C(=O)O)=C[C@@H]1O [DANA]
PG0352 [1]
  X-ray crystal structure, 2.14 Å (soaked): DANA binds within the sialidase active site in a similar conformation

## CC(=O)N[C@H]1[C@H]([C@H](O)[C@H](O)CO)OC(O)(C(=O)O)C[C@@H]1O (some centres unmarked) [Neu5Ac]
PG0352 [2]
  X-ray crystal structure, 1.93 Å (soaked): Clear electron density was visible for Neu5Ac bound in its alpha anomeric form

## OCC1(O)OC[C@@H](O)[C@@H](O)[C@@H]1O (some centres unmarked) [fructose]
PG0352 [3]
  X-ray crystal structure, 2.29 Å (co-crystallized): we co-crystallized PG0352 with fructose and determined the structure of the complex

## PG0352 (Porphyromonas gingivalis W83)
[4]
  Km: 39.31 ± 6.540 µM
[5]
  Km: 81.65 ± 20.56 µM

From paper PMC10553830, “Functional and structural analyses reveal that a dual domain sialidase protects bacteria from complement killing through desialylation of complement factors” (PLOS Pathogens, 2023)
